{
  "source": "PubChem BioAssay (NCI)",
  "tested_on": "MDA-MB-468 breast",
  "assay": "inhibition of tumour cell growth, NCI panel, 48 h",
  "note": "Values joined by “and” are separate entries in the source; they are usually repeats but may differ in a detail not shown here. Identical values can stand only once.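 Method: 48-hour compound exposure of cells in 96-well plates, five concentrations, linear interpolation of endpoints. GI50 = concentration required for 50% inhibition of growth. TGI is the concentration that stops growth completely.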",
  "data": [
    {"compound": "CC(C)c1ccc(COCc2cc(CN3CCCC3)c(O)c3ncccc23)cc1", "values": [
      {"measurement": "GI50", "value": 401, "unit": "nM"},
      {"measurement": "TGI", "value": 1880, "unit": "nM"}
    ]},
    {"compound": "N#Cc1c(NC(=O)c2cccc(C(F)(F)F)c2F)sc2c1CCC(=O)C2", "values": [
      {"measurement": "GI50", "value": 292, "unit": "nM"},
      {"measurement": "TGI", "value": 1030, "unit": "nM"}
    ]},
    {"compound": "CC[C@H](C)[C@H](NC(=O)C12CC(NC)(C1)C2)C(=O)N(C)[C@H](C[C@@H](OC(C)=O)c1nc(C(=O)N[C@@H](Cc2ccccc2)C[C@H](C)C(=O)OC)cs1)C(C)C", "values": [
      {"measurement": "GI50", "value": 59.1, "unit": "nM"},
      {"measurement": "TGI", "value": 2260, "unit": "nM"}
    ]},
    {"compound": "CN(C)c1ccc2nc3ccc(=[N+](C)C)c([N+](=O)[O-])c-3sc2c1", "values": [
      {"measurement": "GI50", "value": 1410, "unit": "nM"},
      {"measurement": "TGI", "value": 3350, "unit": "nM"}
    ]},
    {"compound": "CC(=O)O[C@H]1C[C@H](O[C@H]2[C@@H](O)C[C@H](O[C@H]3[C@@H](O)C[C@H](O[C@H]4CC[C@@]5(C)C(CCC6C5C[C@@H](O)[C@]5(C)[C@@H](C7=CC(=O)OC7)CC[C@]65O)C4)O[C@@H]3C)O[C@@H]2C)O[C@H](C)[C@H]1O[C@@H]1O[C@H](CO)[C@@H](O)[C@H](O)[C@H]1O", "note": "(some centres undefined)", "values": [
      {"measurement": "GI50", "value": "85.6 nM and 220 nM"},
      {"measurement": "TGI", "value": "223 nM and 577 nM"}
    ]},
    {"compound": "COc1cc(/C=C\\c2cc(/C=C\\c3ccc(O)c(OC)c3)n(C(=O)COc3ccc(Cl)cc3Cl)n2)ccc1O", "values": [
      {"measurement": "GI50", "value": 1990, "unit": "nM"},
      {"measurement": "TGI", "value": 5340, "unit": "nM"}
    ]},
    {"compound": "N#C/C(=C\\c1ccc2c(c1)OCO2)n1nnc2ccccc21", "values": [
      {"measurement": "GI50", "value": 555, "unit": "nM"},
      {"measurement": "TGI", "value": 7980, "unit": "nM"}
    ]}
  ]
}
